Experimental data: ChEMBL document CHEMBL1142640, “New natural product isolation and comparison of the secondary metabolite content of three distinct samples of the sea hare Aplysia dactylomela from tenerife” (J Nat Prod, 2000)
Values after ≈ are worked out from the molar mass of the structure shown. Active and inactive are the calls of the source. The rule behind the calls is not given here.

Legend:
[1] = test system: Mycotypha microspora; assay: Antifungal activity against Mycotypha microspora at 50 ug/disk; assay type: functional
[2] = test system: [Chlorella] fusca; assay: Antialgal activity against Chlorella fusca at 50 ug/disk; assay type: functional; conditions: Scenedesmus fuscus
[3] = test system: Microbotryum violaceum; assay: Antifungal activity against Microbotryum violaceae at 50 ug/disk; assay type: functional
[4] = test system: Fusarium oxysporum; assay: Antifungal activity against Fusarium oxysporum at 50 ug/disk; assay type: functional
[5] = test system: Priestia megaterium; assay: Antibacterial activity against Bacillus megaterium at 50 ug/disk; assay type: functional
[6] = test system: Escherichia coli; assay: Antibacterial activity against Escherichia coli at 50 ug/disk; assay type: functional
[7] = test system: Aspergillus pseudoglaucus; assay: Antifungal activity against Eurotium repens at 50 ug/disk; assay type: functional
[8] = test system: ZR-75-1; assay: Cytotoxicity against human ZR-75-1 cells; assay type: functional, cell-based
[9] = test system: HeLa; assay: Cytotoxicity against human HeLa cells; assay type: functional, cell-based
[10] = test system: Microbotryum violaceum; assay: Antifungal activity against Microbotryum violaceae assessed as no colonies of test organism growing within inhibition zone at 50 ug/disk; assay type: functional; conditions: read-out: IZ
[11] = Cytotoxicity against human HMO2 cells; assay type: functional, cell-based
[12] = test system: Priestia megaterium; assay: Antibacterial activity against Bacillus megaterium assessed as no colonies of test organism growing within inhibition zone at 50 ug/disk; assay type: functional; conditions: read-out: IZ
[13] = target: Human immunodeficiency virus type 1 reverse transcriptase (Human immunodeficiency virus 1) (UniProt Q72547); assay: Inhibition of HIV1 reverse transcriptase
[14] = test system: MCF7; assay: Cytotoxicity against human MCF7 cells; assay type: functional, cell-based
[15] = test system: Aspergillus pseudoglaucus; assay: Antifungal activity against Eurotium repens assessed as few colonies of test organism growing within inhibition zone at 50 ug/disk; assay type: functional; conditions: read-out: IZ
[16] = test system: KB; assay: Cytotoxicity against human KB cells; assay type: functional, cell-based
[17] = target: Tyrosine-protein kinase Lck (Homo sapiens) (UniProt P06239); assay: Inhibition of p56lck
[18] = Toxicity in Artemia salina at 0.5 mg/mL after 24 hrs; assay type: organism-based; conditions: in vivo, read-out: Activity
[19] = test system: Mycotypha microspora; assay: Antifungal activity against Mycotypha microspora assessed as few colonies of test organism growing within inhibition zone at 50 ug/disk; assay type: functional; conditions: read-out: IZ
[20] = test system: Lu1; assay: Cytotoxicity against human Lu1 cells; assay type: functional, cell-based
[21] = test system: Caenorhabditis elegans; assay: Nematicidal activity against Caenorhabditis elegans; assay type: functional, organism-based
[22] = test system: HepG2; assay: Cytotoxicity against human HepG2 cells; assay type: functional, cell-based
[23] = test system: Artemia salina; assay: (§1) Toxicity in Artemia salina at 0.5 mg/mL after 48 hrs; assay type: organism-based; conditions: in vivo, 48 h
[24] = test system: [Chlorella] fusca; assay: Antialgal activity against Chlorella fusca assessed as few colonies of test organism growing within inhibition zone at 50 ug/disk; assay type: functional; conditions: Scenedesmus fuscus; read-out: IZ
[25] = as §1; assay type: organism-based; conditions: in vivo, read-out: Activity
[26] = test system: P388; assay: Cytotoxicity against mouse P388 cells; assay type: functional, cell-based
[27] = test system: A549; assay: Cytotoxicity against human A549 cells; assay type: functional, cell-based
[28] = test system: HT-29; assay: Cytotoxicity against human HT29 cells; assay type: functional, cell-based
[29] = Cytotoxicity against human MEL28 cells; assay type: functional, cell-based; conditions: SK-MEL-28
[30] = test system: Microbotryum violaceum; assay: Antifungal activity against Microbotryum violaceae assessed as few colonies of test organism growing within inhibition zone at 50 ug/disk; assay type: functional; conditions: read-out: IZ
[31] = Antibacterial activity against Escherichia coli assessed as few colonies of test organism growing within inhibition zone at 50 ug/disk; conditions: read-out: IZ

Tyrosine-protein kinase Lck (Homo sapiens), sequence (P06239 2-509 limits assumed): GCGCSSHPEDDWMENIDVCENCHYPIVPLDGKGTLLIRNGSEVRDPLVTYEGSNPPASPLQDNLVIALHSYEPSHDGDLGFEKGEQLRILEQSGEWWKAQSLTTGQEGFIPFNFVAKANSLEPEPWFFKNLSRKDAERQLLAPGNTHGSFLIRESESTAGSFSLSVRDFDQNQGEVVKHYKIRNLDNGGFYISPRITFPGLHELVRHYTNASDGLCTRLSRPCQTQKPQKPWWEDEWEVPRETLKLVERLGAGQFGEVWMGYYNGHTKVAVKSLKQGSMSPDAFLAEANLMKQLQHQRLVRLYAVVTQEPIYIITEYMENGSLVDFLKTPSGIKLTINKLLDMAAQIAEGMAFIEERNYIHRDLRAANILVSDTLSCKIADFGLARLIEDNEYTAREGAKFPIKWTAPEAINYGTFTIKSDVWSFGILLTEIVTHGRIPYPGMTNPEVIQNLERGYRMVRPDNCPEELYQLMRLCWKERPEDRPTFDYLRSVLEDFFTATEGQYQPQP

Clc1ccc(COC(Cn2ccnc2)c2ccc(Cl)cc2Cl)c(Cl)c1 (stereo unspecified) [MICONAZOLE]
zone of inhibition at 50 µg/disc ([1]; read-out: IZ): 5 mm | zone of inhibition at 50 µg/disc ([2]; read-out: IZ): 4 mm | zone of inhibition at 50 µg/disc ([3]; read-out: IZ): 20 mm | zone of inhibition at 50 µg/disc ([4]; read-out: IZ): 32 mm | zone of inhibition at 50 µg/disc ([5]; read-out: IZ): 10 mm | zone of inhibition at 50 µg/disc ([6]; read-out: IZ): 1 mm | zone of inhibition at 50 µg/disc ([7]; read-out: IZ): 3 mm

CC1(C)C[C@@H](Br)C[C@](C)(O)[C@@]12C=C/C(=C/Br)CC2
IC50 [8]: > 25 µg/mL | IC50 [9]: 4.5 µg/mL (≈ 11.9 µM) | zone of inhibition at 50 µg/disc [10]: 3 mm | IC50 [11]: 17 µg/mL (≈ 45 µM) | zone of inhibition at 50 µg/disc [12]: 1 mm | Activity [13]: inactive | Activity [2]: inactive | IC50 [14]: < 1 µg/mL | zone of inhibition at 50 µg/disc [15]: 2 mm | IC50 [16]: > 25 µg/mL | Activity [17]: inactive | mortality at 24 h, 0.5 mg/mL [18]: 100% | zone of inhibition at 50 µg/disc [19]: 1 mm | IC50 [20]: > 25 µg/mL | Activity [21]: Active | IC50 [22]: < 1 µg/mL

C=C[C@]1(C)CC[C@@H](Br)[C@](C)(CC[C@@H]2[C@@H](C)[C@]3(C)CC[C@@]2(C)O3)O1 [DACTYLOPYRANOID]
Activity [1]: inactive | Activity [2]: inactive | Activity [3]: inactive | Activity [4]: inactive | Activity [5]: inactive | Activity [23]: Not Active | Activity [6]: inactive | Activity [7]: inactive

CC1(C)O[C@](C)([C@H]2CC[C@](C)(Cl)[C@@H](Br)C2)[C@H](O)C[C@H]1Br [CAESPITOL]
zone of inhibition at 50 µg/disc [24]: 3 mm | IC50 [8]: > 25 µg/mL | IC50 [9]: 100 µg/mL (≈ 231 µM) | Activity [13]: inactive | Activity [3]: inactive | Activity [4]: inactive | Activity [5]: inactive | IC50 [16]: > 25 µg/mL | mortality at 48 h, 0.5 mg/mL [25]: 70% | Activity [6]: inactive | Activity [7]: inactive | Activity [17]: inactive | IC50 [20]: > 25 µg/mL | Activity [21]: Active

C=CC(C)(O)CC[C@@H]1C(=C)CC[C@@H]2C(C)(C)[C@H](Br)CC[C@@]12C (stereo partly specified) [ISOPINNATOL B]
IC50 [8]: > 25 µg/mL | Activity [2]: inactive | Activity [3]: inactive | Activity [4]: inactive | Activity [5]: inactive | IC50 [16]: > 25 µg/mL | Activity [23]: Active | Activity [6]: inactive | Activity [7]: inactive | IC50 [20]: > 25 µg/mL

C=C1C[C@@H](O)[C@@H](Br)C(C)(C)[C@]12CC[C@](C)(Cl)[C@@H](Br)C2 [CARTILAGINEOL]
IC50 [26]: 5 µg/mL (≈ 12.1 µM) | inhibition zone (IZ) [1]: inactive | inhibition zone (IZ) [2]: inactive | inhibition zone (IZ) [3]: inactive | inhibition zone (IZ) [4]: inactive | IC50 [27]: 1 µg/mL (≈ 2.41 µM) | inhibition zone (IZ) [5]: inactive | inhibition zone (Toxicity) [23]: Not Active | inhibition zone (IZ) [6]: inactive | inhibition zone (IZ) [7]: inactive | IC50 [28]: 0.25 µg/mL (≈ 0.603 µM) | IC50 [29]: 1 µg/mL (≈ 2.41 µM)

C=C[C@@](C)(O)CC[C@H]1[C@](C)(CC[C@H](Br)C(C)(C)Cl)[C@@H]2CC[C@@]1(C)O2 [DACTYLOMELOL]
Activity [1]: inactive | Activity [2]: inactive | Activity [3]: inactive | Activity [4]: inactive | Activity [5]: inactive | Activity [23]: Not Active | Activity [6]: inactive | Activity [7]: inactive

C[C@@]1(Cl)C[C@@](C)(Br)[C@H](/C=C/Cl)C[C@@H]1Br
IC50 [8]: > 25 µg/mL | IC50 [9]: 1 µg/mL (≈ 2.74 µM) | Activity [2]: inactive | zone of inhibition at 50 µg/disc [30]: 1 mm | zone of inhibition at 50 µg/disc [15]: 1 mm | IC50 [16]: > 25 µg/mL | mortality at 48 h, 0.5 mg/mL [25]: 90% | zone of inhibition at 50 µg/disc [31]: 1 mm | IC50 [20]: > 25 µg/mL

C=C1C[C@H](O)[C@H](Br)C(C)(C)[C@@]12CC[C@](C)(Br)[C@@H](Cl)C2
IC50 [9]: 10 µg/mL (≈ 24.1 µM) | inhibition zone (IZ) [1]: inactive | inhibition zone (IZ) [2]: inactive | inhibition zone (IZ) [3]: inactive | inhibition zone (IZ) [4]: inactive | Activity [5]: inactive | inhibition zone (Toxicity) [23]: Not Active | inhibition zone (IZ) [6]: inactive | inhibition zone (IZ) [7]: inactive

Cc1cc([C@H]2CC[C@](C)(Cl)[C@@H](Br)C2)co1 [FUROCAESPITANE]
Activity [1]: inactive | Activity [2]: inactive | Activity [3]: inactive | Activity [4]: inactive | Activity [5]: inactive | Activity [23]: Not Active | Activity [6]: inactive | Activity [7]: inactive
